Experimental data from patent publication US20100035755A1, “METHOD OF CONTROLLING WEEDS IN A TURF GRASS BY USING SULFONYLUREA COMPOUNDS” (Moghu Research Center Ltd., priority 2008, published 2010).

How the values were obtained:
Trifolium repens = assay: Weed spectrum, greenhouse pot test; type: in vivo; settings: two weeks after application
In short: (§1)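 Scores reflect visual weed control two weeks after spraying, where 0 means no effect and 100 complete control. Plants grew in a greenhouse at 25˜30° C by day and 15˜25° C by night, with treatment either at sowing or at three-leaf stage.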

Digitaria sanguinalis = assay: Weed spectrum, greenhouse pot test; type: in vivo; settings: for efficacy (0-100 scale): two weeks after application
In short: as §1

Poa annua = assay: Weed spectrum, greenhouse pot test; type: in vivo; settings: for efficacy (0-100 scale): two weeks after application
In short: as §1

Kummerowia striata = assay: Weed spectrum, greenhouse pot test; type: in vivo; settings: two weeks after application
In short: as §1

Zoysia japonica = assay: Turf grass selectivity, greenhouse pot test; type: in vivo; settings: for phytotoxicity (visual assessment 0-10): Zoysia japonica
In short: (§2)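 Turf mats transplanted to pots of sandy loam/top soil (1:1), mown weekly to 0.5-1.0 cm and grown one month in greenhouse (25˜30° C. day, 15˜25° C. night). Test chemicals sprayed at 400, 200, 100, 50, 25, 12, 6, 3 g ai/ha in 2,000 L/ha tap-water dilution; three replicates, randomised, averaged.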

Perennial rye grass = assay: Turf grass selectivity, greenhouse pot test; type: in vivo
In short: as §2

Kentucky bluegrass = assay: Turf grass selectivity, greenhouse pot test; type: in vivo, Poa pratensis
In short: as §2

Dandelion = assay: Weed spectrum, greenhouse pot test; type: in vivo; settings: two weeks after application

In the case of `COc1nc(C)nc(NC(=O)NS(=O)(=O)c2cscc2C2(CF)OCCO2)n1` [Example 2, 3-(2-fluoromethyl-1,3-dioxalan-2-yl)-N-[(4-methoxy-6-methyltriazin-2-yl)aminocarbonyl]4-thiophene sulfonamide], the “efficacy (0-100 scale)” value (Trifolium repens; Post-emergence, 12 g ai/ha) was 40, the “efficacy (0-100 scale)” value (Trifolium repens; Post-emergence, 25 g ai/ha) was 50 and the “efficacy (0-100 scale)” value (Trifolium repens; Post-emergence, 50 g ai/ha) was 60. For the same compound, the “efficacy (0-100 scale)” value (Trifolium repens; Post-emergence, 100 g ai/ha) was 60, the “efficacy (0-100 scale)” value (Trifolium repens; Pre-emergence, 12 g ai/ha) was 30 and the “efficacy (0-100 scale)” value (Trifolium repens; Pre-emergence, 25 g ai/ha) was 60. The “efficacy (0-100 scale)” value (Trifolium repens; Pre-emergence, 50 g ai/ha) was 70, the “efficacy (0-100 scale)” value (Trifolium repens; Pre-emergence, 100 g ai/ha) was 90 and the weed controlled (Digitaria sanguinalis; 50 to 100 g/ha) was “at least 90%”. The “efficacy (0-100 scale)” value (Digitaria sanguinalis; Post-emergence, 12 g ai/ha) was 40, the “efficacy (0-100 scale)” value (Digitaria sanguinalis; Post-emergence, 25 g ai/ha) was 70 and the “efficacy (0-100 scale)” value (Digitaria sanguinalis; Post-emergence, 50 g ai/ha) was 90. The “efficacy (0-100 scale)” value (Digitaria sanguinalis; Post-emergence, 100 g ai/ha) was 100, the “efficacy (0-100 scale)” value (Digitaria sanguinalis; Pre-emergence, 12 g ai/ha) was 95 and the “efficacy (0-100 scale)” value (Digitaria sanguinalis; Pre-emergence, 25 g ai/ha) was 95. The “efficacy (0-100 scale)” value (Digitaria sanguinalis; Pre-emergence, 50 g ai/ha) was 100, the “efficacy (0-100 scale)” value (Digitaria sanguinalis; Pre-emergence, 100 g ai/ha) was 100 and the weed controlled (Poa annua; 50 to 100 g/ha) was “at least 90%”. The “efficacy (0-100 scale)” value (Poa annua; Post-emergence, 12 g ai/ha) was 60, the “efficacy (0-100 scale)” value (Poa annua; Post-emergence, 25 g ai/ha) was 80 and the “efficacy (0-100 scale)” value (Poa annua; Post-emergence, 50 g ai/ha) was 90. For the same compound, the “efficacy (0-100 scale)” value (Poa annua; Post-emergence, 100 g ai/ha) was 95, the “efficacy (0-100 scale)” value (Poa annua; Pre-emergence, 12 g ai/ha) was 50 and the “efficacy (0-100 scale)” value (Poa annua; Pre-emergence, 25 g ai/ha) was 60. The “efficacy (0-100 scale)” value (Poa annua; Pre-emergence, 50 g ai/ha) was 90, the “efficacy (0-100 scale)” value (Poa annua; Pre-emergence, 100 g ai/ha) was 90 and the “efficacy (0-100 scale)” value (Kummerowia striata; Post-emergence, 12 g ai/ha) was 70. The “efficacy (0-100 scale)” value (Kummerowia striata; Post-emergence, 25 g ai/ha) was 70, the “efficacy (0-100 scale)” value (Kummerowia striata; Post-emergence, 50 g ai/ha) was 100 and the “efficacy (0-100 scale)” value (Kummerowia striata; Post-emergence, 100 g ai/ha) was 100. For the same compound, the “efficacy (0-100 scale)” value (Kummerowia striata; Pre-emergence, 12 g ai/ha) was 70, the “efficacy (0-100 scale)” value (Kummerowia striata; Pre-emergence, 25 g ai/ha) was 90 and the “efficacy (0-100 scale)” value (Kummerowia striata; Pre-emergence, 50 g ai/ha) was 90. For the same compound, the “efficacy (0-100 scale)” value (Kummerowia striata; Pre-emergence, 100 g ai/ha) was 100, the “safety to Zoysia japonica” value (Zoysia japonica; 100 g ai/ha or less) was “high safety” and the “phytotoxicity (visual assessment 0-10)” value (Zoysia japonica; 3 g ai/ha, 2 weeks) was 0. For the same compound, the “phytotoxicity (visual assessment 0-10)” value (Zoysia japonica; 3 g ai/ha, 4 weeks) was 0, the “phytotoxicity (visual assessment 0-10)” value (Zoysia japonica; 6 g ai/ha, 2 weeks) was 0 and the “phytotoxicity (visual assessment 0-10)” value (Zoysia japonica; 6 g ai/ha, 4 weeks) was 0. The “phytotoxicity (visual assessment 0-10)” value (Zoysia japonica; 12 g ai/ha, 2 weeks) was 0, the “phytotoxicity (visual assessment 0-10)” value (Zoysia japonica; 12 g ai/ha, 4 weeks) was 0 and the “phytotoxicity (visual assessment 0-10)” value (Zoysia japonica; 25 g ai/ha, 2 weeks) was 0. For the same compound, the “phytotoxicity (visual assessment 0-10)” value (Zoysia japonica; 25 g ai/ha, 4 weeks) was 0, the “phytotoxicity (visual assessment 0-10)” value (Zoysia japonica; 50 g ai/ha, 2 weeks) was 0 and the “phytotoxicity (visual assessment 0-10)” value (Zoysia japonica; 50 g ai/ha, 4 weeks) was 0. The “phytotoxicity (visual assessment 0-10)” value (Zoysia japonica; 100 g ai/ha, 2 weeks) was 1, the “phytotoxicity (visual assessment 0-10)” value (Zoysia japonica; 100 g ai/ha, 4 weeks) was 0 and the “phytotoxicity (visual assessment 0-10)” value (Zoysia japonica; 200 g ai/ha, 2 weeks) was 2. For the same compound, the “phytotoxicity (visual assessment 0-10)” value (Zoysia japonica; 200 g ai/ha, 4 weeks) was 1, the “phytotoxicity (visual assessment 0-10)” value (Zoysia japonica; 400 g ai/ha, 2 weeks) was 4 and the “phytotoxicity (visual assessment 0-10)” value (Zoysia japonica; 400 g ai/ha, 4 weeks) was 3. For the same compound, the “phytotoxicity (visual assessment 0-10)” value (Perennial rye grass; 3 g ai/ha, 2 weeks) was 3, the “phytotoxicity (visual assessment 0-10)” value (Perennial rye grass; 3 g ai/ha, 4 weeks) was 1 and the “phytotoxicity (visual assessment 0-10)” value (Perennial rye grass; 6 g ai/ha, 2 weeks) was 5. The “phytotoxicity (visual assessment 0-10)” value (Perennial rye grass; 6 g ai/ha, 4 weeks) was 3, the “phytotoxicity (visual assessment 0-10)” value (Perennial rye grass; 12 g ai/ha, 2 weeks) was 7 and the “phytotoxicity (visual assessment 0-10)” value (Perennial rye grass; 12 g ai/ha, 4 weeks) was 5. For the same compound, the “phytotoxicity (visual assessment 0-10)” value (Perennial rye grass; 25 g ai/ha, 2 weeks) was 10, the “phytotoxicity (visual assessment 0-10)” value (Perennial rye grass; 25 g ai/ha, 4 weeks) was 10 and the “phytotoxicity (visual assessment 0-10)” value (Perennial rye grass; 50 g ai/ha, 2 weeks) was 10. For the same compound, the “phytotoxicity (visual assessment 0-10)” value (Perennial rye grass; 50 g ai/ha, 4 weeks) was 10, the “phytotoxicity (visual assessment 0-10)” value (Perennial rye grass; 100 g ai/ha, 2 weeks) was 10 and the “phytotoxicity (visual assessment 0-10)” value (Perennial rye grass; 100 g ai/ha, 4 weeks) was 10. The “phytotoxicity (visual assessment 0-10)” value (Perennial rye grass; 200 g ai/ha, 2 weeks) was 10, the “phytotoxicity (visual assessment 0-10)” value (Perennial rye grass; 200 g ai/ha, 4 weeks) was 10 and the “phytotoxicity (visual assessment 0-10)” value (Perennial rye grass; 400 g ai/ha, 2 weeks) was 10. For the same compound, the “phytotoxicity (visual assessment 0-10)” value (Perennial rye grass; 400 g ai/ha, 4 weeks) was 10, the “phytotoxicity (visual assessment 0-10)” value (Kentucky bluegrass; 3 g ai/ha, 2 weeks) was 3 and the “phytotoxicity (visual assessment 0-10)” value (Kentucky bluegrass; 3 g ai/ha, 4 weeks) was 1. For the same compound, the “phytotoxicity (visual assessment 0-10)” value (Kentucky bluegrass; 6 g ai/ha, 2 weeks) was 5, the “phytotoxicity (visual assessment 0-10)” value (Kentucky bluegrass; 6 g ai/ha, 4 weeks) was 3 and the “phytotoxicity (visual assessment 0-10)” value (Kentucky bluegrass; 12 g ai/ha, 2 weeks) was 7. For the same compound, the “phytotoxicity (visual assessment 0-10)” value (Kentucky bluegrass; 12 g ai/ha, 4 weeks) was 5, the “phytotoxicity (visual assessment 0-10)” value (Kentucky bluegrass; 25 g ai/ha, 2 weeks) was 10 and the “phytotoxicity (visual assessment 0-10)” value (Kentucky bluegrass; 25 g ai/ha, 4 weeks) was 10. For the same compound, the “phytotoxicity (visual assessment 0-10)” value (Kentucky bluegrass; 50 g ai/ha, 2 weeks) was 10, the “phytotoxicity (visual assessment 0-10)” value (Kentucky bluegrass; 50 g ai/ha, 4 weeks) was 10 and the “phytotoxicity (visual assessment 0-10)” value (Kentucky bluegrass; 100 g ai/ha, 2 weeks) was 10. For the same compound, the “phytotoxicity (visual assessment 0-10)” value (Kentucky bluegrass; 100 g ai/ha, 4 weeks) was 10, the “phytotoxicity (visual assessment 0-10)” value (Kentucky bluegrass; 200 g ai/ha, 2 weeks) was 10 and the “phytotoxicity (visual assessment 0-10)” value (Kentucky bluegrass; 200 g ai/ha, 4 weeks) was 10. For the same compound, the “phytotoxicity (visual assessment 0-10)” value (Kentucky bluegrass; 400 g ai/ha, 2 weeks) was 10, the “phytotoxicity (visual assessment 0-10)” value (Kentucky bluegrass; 400 g ai/ha, 4 weeks) was 10 and the “efficacy (0-100 scale)” value (Dandelion; Post-emergence, 12 g ai/ha) was 90. The “efficacy (0-100 scale)” value (Dandelion; Post-emergence, 25 g ai/ha) was 90, the “efficacy (0-100 scale)” value (Dandelion; Post-emergence, 50 g ai/ha) was 100 and the “efficacy (0-100 scale)” value (Dandelion; Post-emergence, 100 g ai/ha) was 100. The “efficacy (0-100 scale)” value (Dandelion; Pre-emergence, 12 g ai/ha) was 90, the “efficacy (0-100 scale)” value (Dandelion; Pre-emergence, 25 g ai/ha) was 90 and the “efficacy (0-100 scale)” value (Dandelion; Pre-emergence, 50 g ai/ha) was 100. The “efficacy (0-100 scale)” value (Dandelion; Pre-emergence, 100 g ai/ha) was 100.
